We go through 4 molecules from patent US8933063B2, “Preparation of a crystalline antibiotic substance” (Leo Pharma A/S, priority 2005, dated 2015).

This data set is described as follows: Stability assay: six month storage stability of polymorphic forms of fusidic acid (HPLC). Particulars: for HPLC-assay (% of origin) / Impurities total (%): after 6 month storage at 40° C., solid crystal form. The class given is physicochemical.

As to `CC(=O)O[C@H]1C[C@@]2(C)[C@@H](C[C@@H](O)[C@H]3[C@@]4(C)CC[C@@H](O)[C@@H](C)[C@@H]4CC[C@@]32C)/C1=C(\CCC=C(C)C)C(=O)O` [Fusidic acid of the present invention, Fusidic acid], the “HPLC-assay (% of origin)” value was 99.2 % of origin and the “Impurities total (%)” value is listed as 0.1%. Also, the “Relative stability among known forms of fusidic acid” value (comparative six month standard stability study) is reported as “most stable form”.

With `CC(=O)O[C@H]1C[C@@]2(C)[C@@H](C[C@@H](O)[C@H]3[C@@]4(C)CC[C@@H](O)[C@@H](C)[C@@H]4CC[C@@]32C)/C1=C(\CCC=C(C)C)C(=O)O` [Fusidic acid hemihydrate], under “hemihydrate”, the “HPLC-assay (% of origin)” value is given as 87.7 % of origin and the “Impurities total (%)” value is 8.7%.

`CC(=O)O[C@H]1C[C@@]2(C)[C@@H](C[C@@H](O)[C@H]3[C@@]4(C)CC[C@@H](O)[C@@H](C)[C@@H]4CC[C@@]32C)/C1=C(\CCC=C(C)C)C(=O)O` [Fusidic acid form II from ES 2208110, Fusidic acid]: the “HPLC-assay (% of origin)” value is 88.2 % of origin and the “Impurities total (%)” value is recorded as 5.2%.

As to `CC(=O)O[C@H]1C[C@@]2(C)[C@@H](C[C@@H](O)[C@H]3[C@@]4(C)CC[C@@H](O)[C@@H](C)[C@@H]4CC[C@@]32C)/C1=C(\CCC=C(C)C)C(=O)O` [Fusidic acid form I from ES 2208110, Fusidic acid], the “HPLC-assay (% of origin)” value is 98.2 % of origin and the “Impurities total (%)” value is 1.0%.
